Test results: patent publication US7884116B2, “Octahydronaphthalene derivative and medicine” (Nippon Shinyaku Co., Ltd., priority 2003, dated 2011)
Marks after values point to notes of the source that are not given here. Blank lines part the entries; values can stand above or below the compound they belong to.

Columns and labels:
[1] = reported in non-patent reference 14; cited from earlier work
[2] = system: ICAM-1 expressed on HUVEC; experiment: Test about suppression of ICAM-1 expression (enzyme immuno assay, EIA), TNF-α-stimulated HUVEC; type: cell-based; settings: Homo sapiens, TNF-α 0.3 ng/ml
Procedure: Using a culture broth containing serum for vascular endothelial cell (manufactured by Nissui Pharmaceutical Co., Ltd.) as a culture medium, HUVEC (umbilical vein endothelial cell manufactured by Morinaga Bioscience Institute) was cultured in a collagen-treated flask by the routine method.
For carrying out a test about the suppression of ICAM-1 expression with HUVEC, a collagen-treated 96-well plate was used, where HUVEC was added at 1 to 2×10^4 cells/well while the culture medium was added at 100 to 200 μl/well. The cell was cultured in 5% CO2 at 37° C. for 48 to 72 hours. Before adding a test solution, the culture medium (80 μl) was exchanged, to which 10 μl of a test solution preliminarily diluted was then added. The plate was allowed to stand alone in a CO2 incubator. 2 hours later, 10 μl of TNF-α (recombinant human TNF-α, manufactured by Genzyme) was added (to a final concentration of 0.3 ng/ml). The resulting plate was again allowed to stand alone in the CO2 incubator. 16 to 22 hours later, the cell was fixed with 1% p-formaldehyde solution. The cell was rinsed with a phosphate buffer containing Ca^2+ and Mg^2+, which was then treated with an anti-human ICAM-1 antibody (mouse IgG1, manufactured by Kyowa Medics) at ambient temperature for 30 minutes. After the cell was rinsed again with the phosphate buffer, the cell was treated with a peroxide-labeled anti-mouse IgG (H+L) (manufactured by Organon Teknik Corp.) for another 30 minutes. After the cell was again rinsed with the phosphate buffer, the color developed was measured, using a peroxidase chromogenic kit (manufactured by Sumitomo Bakelite Co., Ltd.), to determine ICAM-1 expressed on HUVEC as an expression-inhibiting ratio (%) to a non-drug group to calculate the IC50 value.

[3] = system: footpad thickness, MeHSA-sensitized C57BL/6 mouse; experiment: Methylated human serum albumin-induced delayed hypersensitivity test (MeHSA-DTH); type: in vivo; settings: oral, twice, footpad thickness 24 hours after induction
Procedure: Methylated human serum albumin (MeHSA) was dissolved in physiological saline to 5 mg/ml, which was then mixed with an equal volume of the complete Freund's adjuvant (manufactured by Iatron), to prepare an emulsion. Next, 100 μl of the prepared emulsion was injected subcutaneously into a 8-week-old male C57BL/6 mouse, for antigen sensitization. Seven days thereafter, MeHSA was dissolved in physiological saline to 1 mg/ml, which was injected at 25 μl subcutaneously into the footpad of the right hind limb, to trigger a reaction. The thickness of the footpad was measured 24 hours after the induction of the reaction, to calculate the difference from the thickness thereof before the induction of the reaction, to make an assessment. Additionally, drugs were orally given twice, namely one hour before the induction of the reaction and 16 hours after the induction thereof.

SMILES: COC(=O)/C=C/C=C/[C@@H]1[C@H]2[C@H](C)[C@@H](O)[C@H](C)C[C@@H]2C=C[C@@H]1C [Coprophilin]
Antibacterial activity [1]: has an antibacterial activity

melting point: 54 to 57 °C
SMILES: COC(=O)/C(C)=C/C=C/[C@@H]1[C@H]2[C@H](C)[C@@H](O)[C@H](C)C[C@@H]2C=C[C@@H]1C [Example 2, Methyl (2E,4E)-5-[(1S,2S,4aR,6R,7S,8S,8aS)-7-hydroxy-2,6,8-trimethyl-1,2,4a,5,6,7,8,8a-octahydronaphthalen-1-yl]-2-methylpenta-2,4-dienoate]
IC50 [2]: 0.67 µM

SMILES: C/C(=C\C=C\[C@@H]1[C@H]2[C@H](C)[C@@H](O)[C@H](C)C[C@@H]2C=C[C@@H]1C)CO [Example 3, (2E,4E)-5-[(1S,2S,4aR,6R,7S,8S,8aS)-7-Hydroxy-2,6,8-trimethyl-1,2,4a,5,6,7,8,8a-octahydronaphthalen-1-yl]-2-methylpenta-2,4-dien-1-ol]
IC50 [2]: 9.9 µM

SMILES: C/C(=C\C=C\[C@@H]1[C@H]2[C@H](C)[C@@H](O)[C@H](C)C[C@@H]2C=C[C@@H]1C)C(=O)NCc1ccncc1 [Example 6, N-(Pyridin-4-ylmethyl)-(2E,4E)-5-[(1S,2S,4aR,6R,7S,8S,8aS)-7-hydroxy-2,6,8-trimethyl-1,2,4a,5,6,7,8,8a-octahydronaphthalen-1-yl]-2-methylpenta-2,4-dienamide]
IC50 [2]: 0.59 µM
Suppression ratio (%) ([3]; 10 mg/kg): 27.8* %
Suppression ratio (%) ([3]; 30 mg/kg): 35.7** %

SMILES: C/C(=C\C=C\[C@@H]1[C@H]2[C@H](C)[C@@H](O)[C@H](C)C[C@@H]2C=C[C@@H]1C)C(=O)NCc1ccccn1 [Example 7, N-(Pyridin-2-ylmethyl)-(2E,4E)-5-[(1S,2S,4aR,6R,7S,8S,8aS)-7-hydroxy-2,6,8-trimethyl-1,2,4a,5,6,7,8,8a-octahydronaphthalen-1-yl]-2-methylpenta-2,4-dienamide]
IC50 [2]: 2 µM

SMILES: C/C(=C\C=C\[C@@H]1[C@H]2[C@H](C)[C@@H](O)[C@H](C)C[C@@H]2C=C[C@@H]1C)C(=O)NCc1ccccc1 [Example 8, N-Benzyl-(2E,4E)-5-[(1S,2S,4aR,6R,7S,8S,8aS)-7-hydroxy-2,6,8-trimethyl-1,2,4a,5,6,7,8,8a-octahydronaphthalen-1-yl]-2-methylpenta-2,4-dienamide]
IC50 [2]: 0.47 µM

SMILES: COc1cccc(CNC(=O)/C(C)=C/C=C/[C@@H]2[C@H]3[C@H](C)[C@@H](O)[C@H](C)C[C@@H]3C=C[C@@H]2C)c1 [Example 9, N-(3-Methoxybenzyl)-(2E,4E)-5-[(1S,2S,4aR,6R,7S,8S,8aS)-7-hydroxy-2,6,8-trimethyl-1,2,4a,5,6,7,8,8a-octahydronaphthalen-1-yl]-2-methylpenta-2,4-dienamide]
IC50 [2]: 2.1 µM

SMILES: C/C(=C\C=C\[C@@H]1[C@H]2[C@H](C)[C@@H](O)[C@H](C)C[C@@H]2C=C[C@@H]1C)C(=O)NCc1ccc(Cl)cc1 [Example 10, N-(4-Chlorobenzyl)-(2E,4E)-5-[(1S,2S,4aR,6R,7S,8S,8aS)-7-hydroxy-2,6,8-trimethyl-1,2,4a,5,6,7,8,8a-octahydronaphthalen-1-yl]-2-methylpenta-2,4-dienamide]
IC50 [2]: 140 µM

SMILES: C/C(=C\C=C\[C@@H]1[C@H]2[C@H](C)[C@@H](O)[C@H](C)C[C@@H]2C=C[C@@H]1C)C(=O)NCc1ccc(C)cc1 [Example 11, N-(4-Methylbenzyl)-(2E,4E)-5-[(1S,2S,4aR,6R,7S,8S,8aS)-7-hydroxy-2,6,8-trimethyl-1,2,4a,5,6,7,8,8a-octahydronaphthalen-1-yl]-2-methylpenta-2,4-dienamide]
IC50 [2]: 160 µM

SMILES: C/C(=C\C=C\[C@@H]1[C@H]2[C@H](C)[C@@H](O)[C@H](C)C[C@@H]2C=C[C@@H]1C)C(=O)NCCc1ccncc1 [Example 13, N-(Pyridin-4-ylethyl)-(2E,4E)-5-[(1S,2S,4aR,6R,7S,8S,8aS)-7-hydroxy-2,6,8-trimethyl-1,2,4a,5,6,7,8,8a-octahydronaphthalen-1-yl]-2-methylpenta-2,4-dienamide]
IC50 [2]: 5.7 µM

SMILES: C/C(=C\C=C\[C@@H]1[C@H]2[C@H](C)[C@@H](O)[C@H](C)C[C@@H]2C=C[C@@H]1C)C(=O)NCCc1ccc(O)cc1 [Example 14, N-(4-Hydroxyphenethyl)-(2E,4E)-5-[(1S,2S,4aR,6R,7S,8S,8aS)-7-hydroxy-2,6,8-trimethyl-1,2,4a,5,6,7,8,8a-octahydronaphthalen-1-yl]-2-methylpenta-2,4-dienamide]
IC50 [2]: 15 µM

SMILES: C/C(=C\C=C\[C@@H]1[C@H]2[C@H](C)[C@@H](O)[C@H](C)C[C@@H]2C=C[C@@H]1C)C(=O)Nc1ccccc1 [Example 16, N-Phenyl-(2E,4E)-5-[(1S,2S,4aR,6R,7S,8S,8aS)-7-hydroxy-2,6,8-trimethyl-1,2,4a,5,6,7,8,8a-octahydronaphthalen-1-yl]-2-methylpenta-2,4-dienamide]
IC50 [2]: 15 µM

SMILES: CNC(=O)/C(C)=C/C=C/[C@@H]1[C@H]2[C@H](C)[C@@H](O)[C@H](C)C[C@@H]2C=C[C@@H]1C [Example 17, N-Methyl-(2E,4E)-5-[(1S,2S,4aR,6R,7S,8S,8aS)-7-hydroxy-2,6,8-trimethyl-1,2,4a,5,6,7,8,8a-octahydronaphthalen-1-yl]-2-methylpenta-2,4-dienamide]
IC50 [2]: 2.6 µM

SMILES: CCCCNC(=O)/C(C)=C/C=C/[C@@H]1[C@H]2[C@H](C)[C@@H](O)[C@H](C)C[C@@H]2C=C[C@@H]1C [Example 18, N-(n-Butyl)-(2E,4E)-5-[(1S,2S,4aR,6R,7S,8S,8aS)-7-hydroxy-2,6,8-trimethyl-1,2,4a,5,6,7,8,8a-octahydronaphthalen-1-yl]-2-methylpenta-2,4-dienamide]
IC50 [2]: 2.4 µM

SMILES: C/C(=C\C=C\[C@@H]1[C@H]2[C@H](C)[C@@H](O)[C@H](C)C[C@@H]2C=C[C@@H]1C)C(=O)NC(C)(C)C [Example 19, N-(t-Butyl)-(2E,4E)-5-[(1S,2S,4aR,6R,7S,8S,8aS)-7-hydroxy-2,6,8-trimethyl-1,2,4a,5,6,7,8,8a-octahydronaphthalen-1-yl]-2-methylpenta-2,4-dienamide]
IC50 [2]: 15 µM

SMILES: C/C(=C\C=C\[C@@H]1[C@H]2[C@H](C)[C@@H](O)[C@H](C)C[C@@H]2C=C[C@@H]1C)C(=O)N(C)C [Example 20, N,N-Dimethyl-(2E,4E)-5-[(1S,2S,4aR,6R,7S,8S,8aS)-7-hydroxy-2,6,8-trimethyl-1,2,4a,5,6,7,8,8a-octahydronaphthalen-1-yl]-2-methylpenta-2,4-dienamide]
IC50 [2]: 1.4 µM

SMILES: C/C(=C\C=C\[C@@H]1[C@H]2[C@H](C)[C@@H](O)[C@H](C)C[C@@H]2C=C[C@@H]1C)C(=O)N(C)Cc1ccccc1 [Example 21, N-Benzyl-N-methyl-(2E,4E)-5-[(1S,2S,4aR,6R,7S,8S,8aS)-7-hydroxy-2,6,8-trimethyl-1,2,4a,5,6,7,8,8a-octahydronaphthalen-1-yl]-2-methylpenta-2,4-dienamide]
IC50 [2]: 4.9 µM

SMILES: C/C(=C\C=C\[C@@H]1[C@H]2[C@H](C)[C@@H](O)[C@H](C)C[C@@H]2C=C[C@@H]1C)C(N)=O [Example 22, (2E,4E)-5-[(1S,2S,4aR,6R,7S,8S,8aS)-7-Hydroxy-2,6,8-trimethyl-1,2,4a,5,6,7,8,8a-octahydronaphthalen-1-yl]-2-methylpenta-2,4-dienamide]
IC50 [2]: 8.8 µM
